One experiment relates to MCF-7. Kind of experiment: MTT anti-proliferative assay, MCF-7. As to conditions: Homo sapiens, MCF7, read-out: IC50 MCF-7. The class given is cell-based.
Another experiment concerns HepG2. Description: MTT anti-proliferative assay, HepG2. The format is cell-based, human. The following applies: mean of three experiments.
A further experiment has as its target VEGFR-2 (Homo sapiens, UniProt P35968). Kind of experiment: biochemical.
For experiment [1], the system named is MCF-7 cells. Description: Cell cycle analysis by flow cytometry. The class given is cell-based, human. As to conditions: MCF-7, 10.17 μM, 72 h.
In experiment [2] the test system is MCF-7 cells. Description: Apoptosis assay, annexin V / PI flow cytometry. The format is cell-based, human. As to conditions: MCF-7, 10.17 μM, 72 h.
For another experiment, the system named is BAX. Kind of experiment: BAX level in MCF-7 cells. The class given is cell-based, human. As to conditions: MCF-7, 10.17 μM.
The next experiment relates to Bcl-2. Description: Bcl-2 level in MCF-7 cells. The format is cell-based, human. As to conditions: MCF-7, 10.17 μM.
The next experiment concerns caspase-8. Kind of experiment: Caspase-8 level in MCF-7 cells. The format is cell-based, human. The following applies: MCF-7, 10.17 μM.
A further experiment concerns caspase-9. Kind of experiment: Caspase-9 level in MCF-7 cells. The class given is cell-based, human. The following applies: MCF-7, 10.17 μM.
The next experiment deals with TNF-α. Description: TNF-α level in MCF-7 cells. The class given is cell-based, human.
In a further experiment the test system is IL6. Kind of experiment: IL6 level in MCF-7 cells. The format is cell-based, human.
Setting [3] is: Homo sapiens, HepG2, read-out: IC50 HepG2, MTT assay.

Like-named read-outs stand apart in the source and are kept apart here.

Chain of VEGFR-2 (P35968 20-1356): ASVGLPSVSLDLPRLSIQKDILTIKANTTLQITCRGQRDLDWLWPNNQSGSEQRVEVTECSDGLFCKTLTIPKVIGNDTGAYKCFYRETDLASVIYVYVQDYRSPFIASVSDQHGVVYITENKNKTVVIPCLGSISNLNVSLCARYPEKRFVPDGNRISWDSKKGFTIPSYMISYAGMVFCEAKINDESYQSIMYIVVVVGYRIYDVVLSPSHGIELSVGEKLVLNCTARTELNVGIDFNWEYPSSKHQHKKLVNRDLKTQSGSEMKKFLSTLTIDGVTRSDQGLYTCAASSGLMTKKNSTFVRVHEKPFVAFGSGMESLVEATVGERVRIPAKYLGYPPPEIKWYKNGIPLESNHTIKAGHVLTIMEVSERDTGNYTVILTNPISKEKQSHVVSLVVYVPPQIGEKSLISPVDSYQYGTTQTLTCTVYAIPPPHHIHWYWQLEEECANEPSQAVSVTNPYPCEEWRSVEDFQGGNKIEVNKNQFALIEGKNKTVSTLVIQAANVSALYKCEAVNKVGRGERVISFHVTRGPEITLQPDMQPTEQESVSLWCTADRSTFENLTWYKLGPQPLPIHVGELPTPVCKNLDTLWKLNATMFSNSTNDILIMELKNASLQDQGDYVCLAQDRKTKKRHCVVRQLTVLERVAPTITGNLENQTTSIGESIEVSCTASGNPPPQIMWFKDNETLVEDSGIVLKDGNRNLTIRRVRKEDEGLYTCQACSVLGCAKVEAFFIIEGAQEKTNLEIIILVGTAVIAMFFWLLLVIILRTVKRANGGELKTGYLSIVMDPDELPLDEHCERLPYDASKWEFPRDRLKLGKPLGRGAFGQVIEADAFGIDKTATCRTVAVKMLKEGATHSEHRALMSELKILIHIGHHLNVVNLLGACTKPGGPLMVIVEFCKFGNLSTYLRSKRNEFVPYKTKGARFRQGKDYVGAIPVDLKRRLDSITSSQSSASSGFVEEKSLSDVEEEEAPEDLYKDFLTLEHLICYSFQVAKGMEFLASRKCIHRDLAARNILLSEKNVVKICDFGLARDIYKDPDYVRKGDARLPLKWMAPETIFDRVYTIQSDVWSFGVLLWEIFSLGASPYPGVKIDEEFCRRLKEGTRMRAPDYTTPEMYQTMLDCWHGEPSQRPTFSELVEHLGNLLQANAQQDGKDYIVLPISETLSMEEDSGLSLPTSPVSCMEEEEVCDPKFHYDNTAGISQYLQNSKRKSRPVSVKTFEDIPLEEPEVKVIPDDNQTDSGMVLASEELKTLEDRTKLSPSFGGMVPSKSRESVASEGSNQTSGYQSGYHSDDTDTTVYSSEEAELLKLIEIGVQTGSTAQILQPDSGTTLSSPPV

In the case of `O=C(CSc1nnc(Cn2cnc3sc4c(c3c2=O)CCCC4)o1)Nc1nccs1` [Compound 21, 2-((5-((4-Oxo-5,6,7,8-tetrahydrobenzo[4,5]thieno[2,3-d]pyrimidin-3(4H)-yl)methyl)-1,3,4-oxadiazol-2-yl)thio)-N-(thiazol-2-yl)acetamide], the IC50 in the experiment with MCF-7 is 6.31 ± 0.16 µM; in the experiment with HepG2 (setting [3]), 11.8 ± 1.05 µM; at VEGFR-2, 0.42 ± 0.008 µM.

With `O=C(CSc1nnc(Cn2cnc3sc4c(c3c2=O)CCCC4)o1)Nc1nc2ccccc2s1` [Compound 22, N-(Benzo[d]thiazol-2-yl)-2-((5-((4-oxo-5,6,7,8-tetrahydrobenzo[4,5]thieno[2,3-d]pyrimidin-3(4H)-yl)methyl)-1,3,4-oxadiazol-2-yl)thio)acetamide], the IC50 in the experiment on MCF-7 is 5.73 ± 0.18 µM; in the experiment with HepG2 (setting [3]) it was 5.51 ± 0.25 µM.

For `CNC(=O)c1cc(Oc2ccc(NC(=O)Nc3ccc(Cl)c(C(F)(F)F)c3)cc2)ccn1` [Sorafenib, reference compound], the figures for the IC50 with MCF-7 and in the experiment on HepG2 (setting [3]) were 9.98 ± 0.6 µM and 13.3 ± 0.3 µM, respectively.

For the compound `O=C(CSc1nnc(Cn2cnc3sc4c(c3c2=O)CCCC4)o1)N1CCCCC1` [Compound 18, 3-((5-((2-Oxo-2-(piperidin-1-yl)ethyl)thio)-1,3,4-oxadiazol-2-yl)methyl)-5,6,7,8-tetrahydrobenzo[4,5]thieno[2,3-d]pyrimidin-4(3H)-one], the IC50 with MCF-7 turned out to be 10.2 ± 1.01 µM. The IC50 in the experiment with HepG2 (setting [3]) was found to be 24.5 µM. The concentration for half-maximal inhibition (IC50) in the experiment on HepG2 (read-out: IC50 HepG2, MTT assay) is 24.3 ± 2.08 µM. In addition, in the experiment with MCF-7 cells [1], the “Cell cycle distribution (%) % G2/M” value was determined as 15.4%, the “Cell cycle distribution (%) %G0–G1” value was determined as 56.46% and the “Cell cycle distribution (%) %S” value amounted to 28.14%. In the experiment with MCF-7 cells [2], the “Apoptosis induced (early + late)” value came to 23.35%, the Early apoptosis was 15.96%, the Late apoptosis is reported as 7.39% and the Necrosis stood at 2.41. In the experiment on MCF-7 cells [2], the “Total (cell death)” value amounted to 25.76. Moreover, the “BAX level increase vs control” value in the experiment with BAX stood at 3.6 fold. The “Protein expression BAX” value with BAX (control = 1) was found to be 3.669. Moreover, in the experiment with Bcl-2, the “Bcl-2 level decrease vs control” value was 3.1 fold. In the experiment on Bcl-2 (control = 1), the “Protein expression Bcl-2” value was found to be 0.315. Further, the “Caspase-8 level increase vs control” value in the experiment with caspase-8 was found to be 2.6 fold. Further, in the experiment with caspase-8 (control = 1), the “Protein expression Caspase-8” value is recorded as 2.607. The “Caspase-9 level increase vs control” value with caspase-9 was found to be 5.4 fold. For the same compound, the “Protein expression Caspase-9” value in the experiment with caspase-9 (control = 1) came to 5.422. Further, in the experiment with TNF-α, the “TNF-α level lower than control” value was 2.9 times. Besides, the TNF-α level in the experiment on TNF-α (control = 1) was 0.335. Moreover, the “IL6 level lower than control” value in the experiment on IL6 worked out at 2.5 times. The IL6 level in the experiment with IL6 (control = 1) is recorded as 0.393.

Regarding `O=C(CSc1nnc(Cn2cnc3sc4c(c3c2=O)CCCC4)o1)Nc1c([N+](=O)[O-])cccc1[N+](=O)[O-]` [Compound 19, N-(2,6-Dinitrophenyl)-2-((5-((4-oxo-5,6,7,8-tetrahydrobenzo[4,5]thieno[2,3-d]pyrimidin-3(4H)-yl)methyl)-1,3,4-oxadiazol-2-yl)thio)acetamide], the IC50 with MCF-7 came out at 16.5 ± 1.16 µM; in the experiment with HepG2 (setting [3]), 31.8 ± 1.15 µM; against VEGFR-2, 0.29 ± 0.007 µM.

Consider `O=C(CSc1nnc(Cn2cnc3sc4c(c3c2=O)CCCC4)o1)Nc1ccc(Cl)cn1` [Compound 20, N-(5-Chloropyridin-2-yl)-2-((5-((4-oxo-5,6,7,8-tetrahydrobenzo[4,5]thieno[2,3-d]pyrimidin-3(4H)-yl)methyl)-1,3,4-oxadiazol-2-yl)thio)acetamide], for which the IC50 in the experiment on MCF-7 amounted to 5.38 ± 0.45 µM; with HepG2 (setting [3]), 4.84 ± 0.38 µM.
